Earlier results as cited in patent US7833524B2 (priority 2005, dated 2010).

Biological target: LC/A (Clostridium botulinum, UniProt P0DPI0)
Sequence (P0DPI0 2-448 limits assumed): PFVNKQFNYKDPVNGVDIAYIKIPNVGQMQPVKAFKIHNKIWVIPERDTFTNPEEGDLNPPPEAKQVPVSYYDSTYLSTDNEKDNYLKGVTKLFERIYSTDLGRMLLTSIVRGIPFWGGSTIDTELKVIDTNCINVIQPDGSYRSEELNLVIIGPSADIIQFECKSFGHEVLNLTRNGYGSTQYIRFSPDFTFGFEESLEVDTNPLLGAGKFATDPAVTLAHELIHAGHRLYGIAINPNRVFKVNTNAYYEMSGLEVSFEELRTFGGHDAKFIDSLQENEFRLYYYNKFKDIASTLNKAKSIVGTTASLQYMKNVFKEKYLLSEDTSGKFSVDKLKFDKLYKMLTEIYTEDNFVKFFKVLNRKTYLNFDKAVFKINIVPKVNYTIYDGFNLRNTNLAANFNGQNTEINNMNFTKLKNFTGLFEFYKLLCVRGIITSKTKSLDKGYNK

SMILES	Concentration range that inhibits LC/A
C[C@H](CS)C(=O)N1CCC[C@H]1C(=O)O [captopril]	mM concentrations
CCOC(=O)[C@H](CCc1ccccc1)N[C@@H](C)C(=O)N1CCC[C@H]1C(=O)O [enalapril]	mM concentrations
